Measured values published in patent publication US20170015696A1, “SOLID STATE FORMS OF SOFOSBUVIR” (RATIOPHARM GMBH, priority 2014, published 2017).

Assay: Storage stability of the solid state form at ambient conditions
Assay type: physicochemical
Settings: stored at ambient conditions (e.g., 1 atmosphere at RT)
From the text: Form A has certain advantageous properties as discussed above. Particularly, form A is stable for a period of 16 months when stored at ambient conditions (e.g., 1 atmosphere at RT).

Structure (SMILES): CC(C)OC(=O)[C@H](C)N[P@](=O)(OC[C@H]1O[C@@H](n2ccc(=O)[nH]c2=O)[C@](C)(F)[C@@H]1O)Oc1ccccc1 [form A, Sofosbuvir]
- period for which the form is stable when stored: 16 months
